10 molecules from patent US12178805B2, “Inhibitors of PDE6Delta for use in the prevention and/or treatment of epilepsy and/or neurodegenerative disorders” (ReMYND N.V., priority 2017, dated 2024) can be followed below.

Each structure is given as a SMILES string.

The subject of assay [1] is VGCC activity in primary neurons. The assay is described as follows: KCl-induced Ca2+ influx (VGCC activity) in primary neurons. In kind it is cell-based, mouse. The following applies: for inhibition at 10 µM: Mus musculus, Primary neuron, relative to vehicle treated neurons, KCl depolarisation, read-out: % inhibition of cytosolic Ca^2+ influx. As to the method:
Examplary compound 6 was tested for its ability to inhibit VGCC activity in primary neurons. Neurons from mouse embryos were harvested and cultured using standard methods (such as used in Schlager et al., 2014. Cell reports, 8(5), pp. 1248-56). To stimulate VGCC activity, neurons were depolarized using 45 mM KCl and incubated with vehicle or 1.5 μM of compound. Calcium influx was measured using fluorescent cytosolic Ca^2+ detection reagent Fura2.
Changes in cytosolic Ca^2+ concentrations were measured after loading the cells with Fura-2 AM (Sigma-Aldrich), a cell permeable fluorescent probe for Ca^2+. Briefly, Fura-2-AM was dissolved in DMSO plus 20% Pluronic Acid (F-127) (Invitrogen) in a 1:1 ratio and diluted in medium to a final concentration of 0.5 μM. Probenecid (Sigma-Aldrich) was added to this loading medium at a final concentration of 2.5 mM. Then, culture medium was replaced by loading medium and after incubation for 1 hour at 37° C. cells were washed twice and replaced with HBSS (Gibco) supplemented with 0.2% FBS and 0.02M HEPES. Next, changes in cytosolic calcium were measured using a FlexStation 3 microplate reader (Molecular Devices) and quantified ratiometric, by calculating changes in the amount of cytosolic Ca^2+ bound Fura-2 (fluorescence intensity at 340 nm) relative to the amount of Ca^2+ unbound Fura-2 (fluorescence intensity at 380 nm). Data was processed in SoftMax Pro 5.4.6 software (Molecular Devices).
Compounds 1-7 were tested at 10 μM for their ability to inhibit Ca^2+ influx in primary neurons (FIG. 5) as described in Example 21 (Table 5). Primary neurons treated with vehicle in which no compound was dissolved was used as a no-effect control. The percentage (%) inhibition of Ca^2+ influx relative to vehicle treated neurons was calculated.

The target of a further assay is T1, RAP1A binding on PDE6δ (Homo sapiens, UniProt O43924).
T1 construct: expressed in transfected cells
T1 sequence (O43924 whole entry): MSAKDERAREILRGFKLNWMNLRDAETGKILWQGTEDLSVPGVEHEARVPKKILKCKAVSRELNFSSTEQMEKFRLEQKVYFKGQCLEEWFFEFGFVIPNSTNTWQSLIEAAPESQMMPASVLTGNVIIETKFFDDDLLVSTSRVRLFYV
The assay is described as follows: PDE6δ-STREP/HA pull-down from HEK293 cells with quantitative mass spectrometry of interactors. In kind it is cell-based. The following applies: 1 hour incubation of 1 μM. The source says: PDE6δ together with associated proteins was precipitated from a cellular extract either in the presence or absence of Compound A:
Using mass spectrometry based techniques interacting proteins were quantitatively identified in function of compound presence (FIG. 11).
In the absence of Compound A a host of interacting proteins were identified including known interactors such as Arl3 and RPGR. […] This effect is highly specific since a non-prenylated interactor of PDE6δ such as Arl3 which bind PDE6δ via different mechanisms is not impacted.
The cDNA encoding human PDE6δ was fused with a STREP-HA tag encoding DNA sequence and expressed in HEK293 cells using a standard expression vector. The bait sequence was verified by sequencing. […] Bait expression and solubility was monitored by immunoblotting using anti-HA antibodies. […]
Affinity purification and mass spectrometrical analysis of PDE6δ-strep-HA expressed in HEK293 cells was performed with three biological replicates for label free quantitative mass spectrometrical analysis. The samples were analyzed on a Thermo LTQ Orbitrap XL spectrometer using a C18 column, ESI and a 60 min gradient. The signals' intenstity are provided as 2 Log values and correlates to the concentration of the detected mass (number/amount of peptide). […]

The test system of a further assay is M17-TAU P301L cells. Kind of assay: TAU-toxicity model, LDH leakage of retinoic acid incubated M17-TAU P301L cells. In kind it is cell-based, human. To be noted: non-silenced cells. The source says: A TAU expression plasmid was constructed by sub-cloning the cDNA of human TAU-P301L (encoding for TAU with proline 301 substituted by a leucine residue) into mammalian expression vector pcDNA3.1 resulting in plasmid pcDNA3.1-TAU P301L. Plasmids pcDNA3.1 and pcDNA3.1-TAU P301L were transfected to human neuroblastoma cells ([…]; ATCC No. CRL-2267) and independent clonal lines with the plasmids stably integrated into the genome were selected. […] Expression of the TAU P301L genes in the cell lines was confirmed by Western analysis.
In degenerated or dead cells lactate dehydrogenase (LDH) leaks out of the cells into the extracellular environment due to a loss of plasma-membrane integrity. This principle was used to determine cytotoxicity by quantifying the level of leaked LDH into the growth medium relative to the sum of total LDH activity from living cells and dead cells.
(§1) The detailed method for determining cytotoxicity was as follows: From appropriate precultures of M17-3.1 and M17-TAU(P301L) cells were seeded at 2500 cells/cm2 in Optimem Reduced Serum without phenol red (Gibco, Cat. 31985-047) supplemented with 1% fetal calf serum, 1 mM sodium pyruvate, 1× non-essential amino acids, 500 μg/ml G418 0.5×antibiotic/antimycotic. After 3 hours of incubation at 37° C./5% CO2 1 volume of Optimem Reduced Serum (same as described above; except without fetal calf serum) supplemented with 2.5 μM all-trans retinoic acid (ATRA) was added. The cells were further incubated for 7 days. Subsequently, LDH activity was determined using Promega Cytotox 96 Non-Radioactive cytotoxicity assay, (Cat. G1780) according the supplier's instructions.
The M17-TAU P301L cell line made it possible to assess the ability of novel compounds to inhibit PDE6δ and counteract TAU cytotoxicity. […] These measurements were used to calculate EC50 values.

For the next assay, the system named is PDE6δ silenced cells. Kind of assay: TAU-toxicity model in PDE6δ silenced cells. It is filed as cell-based, human. The following applies: compared with non-silenced cells.
Assay [2] deals with phosphorylated TAU in brain. Kind of assay: in vivo TAU phosphorylation in brain of transgenic APP*PS1 mice, Western analysis. Set-up: species or system mouse. The following applies: 20 mg/kg daily subcutaneously, 5-month old APP*PS1 mice, versus vehicle. Here is the method:
Transgenic human 5-month old APP*PS1 mice (The Journal of Neuroscience, Sep. 1, 2000, 20(17):6452-6458) were treated daily subcutaneously with 20 mg/kg Compound 6 or for two weeks with Compound A:
At the end of the treatment period, mice were sacrificed and the corresponding brains were used for biochemical analysis.

The test system of assay [3] is primary rat hippocampal neurons. The assay is described as follows: ex-vivo inhibition of oligomeric amyloid beta (Aβo/ADDL) toxicity in primary neurons. It is filed as cell-based. To be noted: 100 ng/mL, 1000 nM ADDL, 24 h. Here is the method:
An exemplary compound of this invention was tested for its ability to inhibit toxicity elicited by oligomeric amyloid beta (Aβo). Neurons from rat embryos were harvested and cultured using standard methods (such as used in Schlager et al., 2014. Cell reports, 8(5), pp. 1248-56.). Differentiated neurons were challenged with Aβo and viability was quantified.
At day in-vitro 19 days after isolation primary hippocampal neurons were transfected with Marcks-GFP in order to visualize the neurons with fluorescence microscopy.
ADDL (Abeta-derived diffusible ligands) preparation (representing Aβo) was done according to Klein (Klein, 2002. Neurochemistry international, 41(5), pp. 345-52.). Abeta 1-42 was purchased from AnaSpec Inc. and dissolved in HFIP to homogenize the peptide. HFIP was then evaporated in a speedvac and Abeta film was dried at −20° C. overnight over desiccant. Abeta film was then resolubilised in 100% DMSO and further diluted (1/25) in Ham's F12 medium. Blanks were prepared by adding equal amounts of DMSO to Ham's F12 medium. Abeta and Blank solutions were incubated overnight at 4° C.
At day in-vitro 21 primary rat hippocampal neurons were treated with equal volume of Blank/ADDL solution amounting to 0 and 1000 nM ADDL. Cultures were kept at 37° C. 5% CO2 for 24 h before PFA fixation. Viability was assessed using the Live-Dead assay from Thermo Fisher Catalog number: L3224.

Assay [4] concerns transgenic human APP mice. Kind of assay: Morris Water Maze test in transgenic APP mice. In kind it is in vivo, mouse. The following applies: 20 mg/kg subcutaneously, daily for 8 weeks, versus vehicle. Here is the method: Transgenic human 4-month old APP mice (THE JOURNAL OF BIOLOGICAL […] Vol. 274, No. 10, Issue of March 5, pp. 6483-6492, 1999) were treated subcutaneously, daily for 8 weeks with examplary Compound 6 at 20 mg/kg (FIG. 7). Cognition was assessed using the Morris Water Maze test. […] After the learning phase a probe test was conducted in which the platform was removed from the water bath to evaluate the spatial memory of the location of the platform.
Both indices indicate that compound treated mice have improved cognitive performance almost identical to wild type controls compared to vehicle treated mice.

The subject of the next assay is mouse brain slices. The assay is described as follows: afterhyperpolarization of single action potentials in mouse brain slices. To be noted: slices incubated with compound versus vehicle. Here is the method: A single spike was elicited by injecting a 2 ms depolarizing current pulse (35 pA) and action potential (AP) parameters were at baseline and after 25 min vehicle or compound perfusion.
Action potentials (AP) after electrical stimulation of mouse brain slices were analysed (FIG. 14).
The experiment was performed as described in Example 24.

Assay [5] deals with CA1 pyramidal neurons in tgAPP mouse brain slices. The assay is described as follows: firing rate of CA1 neurons in brain slices of tgAPP mice, patch clamp. To be noted: 2 μM, 1 hr perfusion. Here is the method: Brain slices from wild type and tgAPP mice were incubated with DMSO or Compound 6. Neurons were stimulated with increasing currents and the frequency of action potentials was measured.
Acute sagittal brain slices from WT or hAPP mice were prepared by decapitation of the mice after isoflurane anaesthesia. Brains were removed quickly and immersed during 3-4 min in ice-cold freshly prepared cutting artificial cerebrospinal fluid (cutting aCSF) containing (in mM) 214 sucrose, 2.5 KCl, 2 CaCl2), 2 MgSO4, 1.25 NaH2PO2, 26 NaHCO3 and 10 glucose and oxygenated with 95% O2/5% CO2. Sagittal 350 μm slices were generated using a vibratome (VT 1000S; Leica Microsystems) and were incubated in standard carboxygenated aCSF (in mM: 125 NaCl, 2.5 KCl, 2 CaCl2), 2 MgSO4, 1.25 NaH2PO2, 26 NaHCO3 and 10 glucose, osmolarity 305 mOsm) at 34° C. during 20 min. The incubation continued at room temperature (RT) for another hour before each slice was transferred to a submerged recording chamber and perfused continuously with carboxygenated aCSF. […]
Dendritic firing rate of CA1 cells was recorded in response to hyperpolarizing and depolarizing steps (−0.4 to +0.45 nA, steps of 0.05 nA) after a 1 hr perfusion with vehicle or compound at 2 μM. […]

A further assay deals with RAP1A silenced cells. The assay is described as follows: TAU-toxicity model in RAP1A silenced cells. It is filed as cell-based, human. The following applies: compared with non-silenced cells. Here is the method: as §1

One may read the inhibition as the relative decrease from the control value, in per cent. Regarding `O=C(NCCc1c[nH]c2ccc(F)cc12)c1cc(Cc2ccc(F)cc2F)on1` [Compound 1], the inhibition at 10 µM in assay [1] was 43%.

Take `O=C(NCCc1c[nH]c2ccc(Cl)cc12)c1cc(Cc2cc(F)ccc2F)on1` [Compound A]: on RAP1A binding on PDE6δ, the “interaction of Arl3 (non-prenylated interactor) with PDE6δ” value is recorded as “not impacted” and the “interaction of RAP1A with PDE6δ” value is recorded as “specifically reduced”.

Turning to `O=C(NCCc1c[nH]c2ccc(F)cc12)c1cc(Cc2cc(F)cc(F)c2)on1` [Compound 3], the inhibition at 10 µM in [1] was 42%.

Regarding `O=C(NCCc1c[nH]c2ccc(F)cc12)c1cc(Cc2cccc(F)c2F)on1` [Compound 5], the inhibition at 10 µM in assay [1] turned out to be 42%.

`O=C(NCCc1c[nH]c2ccc(F)cc12)c1cc(Cc2ccccc2F)on1` [Compound 7]: the inhibition at 10 µM in assay [1] was 56%.

Take `COC(=O)C1=C(C)NC(C)=C(C(=O)OC(C)C)C1c1cccc2nonc12` (stereo not shown) [isradepine]: the “effect on TAU-induced toxicity” value in the assay on M17-TAU P301L cells is given as “lowered toxicity”.

Take `c1ccc(Cn2c(-c3ccc(OC[C@H](C4CCNCC4)n4c(-c5ccccc5)nc5ccccc54)cc3)nc3ccccc32)cc1` [Deltarasin, reference compound]: the “effect on TAU-induced toxicity” value in the assay on M17-TAU P301L cells is listed as “lowered toxicity”. Moreover, in the assay on PDE6δ silenced cells, the “effect of the compound on lowering toxicity in PDE6δ silenced cells” value is “strongly reduced”.

With `O=C(NCCc1c[nH]c2ccc(F)cc12)c1cc(Cc2cc(F)ccc2F)on1` [Compound 6], in [2], the “TAU phosphorylation in brain extracts” value was “effectively reduced TAU phosphorylation”. Moreover, the “neuronal viability in Aβo treated neurons” value in assay [3] is reported as “strongly rescued”. In [1] (1.5 μM, 45 mM KCl), the “Ca^2+ influx upon KCl depolarisation” value is recorded as “significantly reduced”. Besides, in assay [1], the inhibition at 10 µM was 43%. Further, in the assay with M17-TAU P301L cells, the “effect on TAU-induced toxicity” value is “reduced toxicity”. In [4], the “annulus crossing index in probe test” value is “higher annulus crossing index score” and the “search path during training phase” value was “reduced search path”. The “afterhyperpolarization of action potentials” value in the assay with mouse brain slices was “increased”. Besides, the “effect of the compound on lowering toxicity in PDE6δ silenced cells” value with PDE6δ silenced cells is given as “strongly reduced”. Moreover, in [5], the “frequency of action potentials at high stimulation” value is given as “significantly lowered the frequency towards wild type level”. Moreover, the “compound effect on reducing neurotoxicity in RAP1A silenced cells” value in the assay with RAP1A silenced cells was “strongly reduced”.

Take `O=C(NCCc1c[nH]c2ccc(F)cc12)c1cc(Cc2ccc(F)c(F)c2)on1` [Compound 2]: in [1], the inhibition at 10 µM is 48%.

Consider `O=C(NCCc1c[nH]c2ccc(F)cc12)c1cc(Cc2ccc(F)cc2)on1` [Compound 4], for which the inhibition at 10 µM in [1] was 39%.
